{
  "source": "paper PMC5712521",
  "about": "“Dendrogenin A drives LXR to trigger lethal autophagy in cancers” (Nature Communications, 2017)",
  "target": "T1, 3β-hydroxysterol-Δ8,7-isomerase (D8D7I) (Homo sapiens, UniProt Q15125)",
  "T1 construct": "endogenous in cells; host or cells: B16F10 (murine) and SKMEL-28 (human) melanoma cells",
  "T1 sequence (Q15125 whole entry, stated change not applied)": "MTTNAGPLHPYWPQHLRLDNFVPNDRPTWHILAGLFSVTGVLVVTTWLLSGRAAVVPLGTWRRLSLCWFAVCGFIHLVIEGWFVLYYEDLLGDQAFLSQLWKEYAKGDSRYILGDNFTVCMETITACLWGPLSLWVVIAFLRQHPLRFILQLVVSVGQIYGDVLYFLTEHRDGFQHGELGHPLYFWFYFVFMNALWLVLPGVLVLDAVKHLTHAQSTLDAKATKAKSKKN",
  "assay": "D8D7I inhibition shown by Δ8-sterol accumulation in melanoma cells",
  "assay_type": "cell-based",
  "conditions": "B16F10 and SKMEL-28, 2.5 µM DDA, 48 h; accumulation of zymostenol and 8-dehydrocholesterol",
  "experimental": "Sterols in cell homogenates were extracted with a solvent mixture containing chloroform/methanol 2/1 (v/v) spiked with epicoprostanol as the internal standard. Lipids were partitioned in chloroform after the addition of saline and saponified by methanolic potassium hydroxide (0.5 N, 60 °C, 15 min). The fatty acids released were methylated with BF3-methanol (12%, 60 °C, 15 min) to not interfere with the chromatography of sterols. The sterols were re-extracted in hexane and silylated, as described previously. […] Sterols were identified by the fragmentogram in the scanning mode and quantified by selective monitoring of the specific ions after normalization with the internal standard epicoprostanol and calibration with weighed standards.\nSupplementary Fig. 2. DD A induce d th e accum ulation of cholestero l precursors in m elanom a cells. a Quantification of sterol accum ulation in cells after 48 h tr eatm ent with or without 2.5 µM DDA. […]\naccum ulation. e Representative EM im ages of cells treated for 24 h with solvent vehicle (panels 1- 2) or 2.5 µM DDA (panels 3- 4). […] Cells were treated with solvent vehicle (control) or 2.5 µM DDA for 24 h with or without 1 µ M Baf A1, the n stained with MDC and obser ved by fluorescence m icroscopy. […]",
  "data": [
    {"smiles": "CC(C)CCC[C@@H](C)[C@H]1CC[C@H]2[C@@H]3C[C@@H](NCCc4cnc[nH]4)[C@@]4(O)C[C@@H](O)CC[C@]4(C)[C@H]3CC[C@]12C", "note": "[DDA, Dendrogenin A]", "values": [
      {"measurement": "D8D7I inhibition", "value": "inhibited D8D7I"}
    ]}
  ]
}
